In US11739098B2 (BRISTOL-MYERS SQUIBB COMPANY, priority 2017, dated 2023):

What was measured:
Format in all cases: cell-based
human TLR9 = biological target: T1, human TLR9 (Homo sapiens, UniProt Q9NR96); assay: TLR9 inhibition reporter assay (HEK-Blue cells, SEAP reporter, ODN2006 stimulation); conditions: HEK-Blue cells overexpressing human TLR9, SEAP reporter, ODN2006 5 nM
T1 construct: host or cells: HEK-Blue cells (HEK293-derived reporter line)
T1 sequence (Q9NR96 26-1032): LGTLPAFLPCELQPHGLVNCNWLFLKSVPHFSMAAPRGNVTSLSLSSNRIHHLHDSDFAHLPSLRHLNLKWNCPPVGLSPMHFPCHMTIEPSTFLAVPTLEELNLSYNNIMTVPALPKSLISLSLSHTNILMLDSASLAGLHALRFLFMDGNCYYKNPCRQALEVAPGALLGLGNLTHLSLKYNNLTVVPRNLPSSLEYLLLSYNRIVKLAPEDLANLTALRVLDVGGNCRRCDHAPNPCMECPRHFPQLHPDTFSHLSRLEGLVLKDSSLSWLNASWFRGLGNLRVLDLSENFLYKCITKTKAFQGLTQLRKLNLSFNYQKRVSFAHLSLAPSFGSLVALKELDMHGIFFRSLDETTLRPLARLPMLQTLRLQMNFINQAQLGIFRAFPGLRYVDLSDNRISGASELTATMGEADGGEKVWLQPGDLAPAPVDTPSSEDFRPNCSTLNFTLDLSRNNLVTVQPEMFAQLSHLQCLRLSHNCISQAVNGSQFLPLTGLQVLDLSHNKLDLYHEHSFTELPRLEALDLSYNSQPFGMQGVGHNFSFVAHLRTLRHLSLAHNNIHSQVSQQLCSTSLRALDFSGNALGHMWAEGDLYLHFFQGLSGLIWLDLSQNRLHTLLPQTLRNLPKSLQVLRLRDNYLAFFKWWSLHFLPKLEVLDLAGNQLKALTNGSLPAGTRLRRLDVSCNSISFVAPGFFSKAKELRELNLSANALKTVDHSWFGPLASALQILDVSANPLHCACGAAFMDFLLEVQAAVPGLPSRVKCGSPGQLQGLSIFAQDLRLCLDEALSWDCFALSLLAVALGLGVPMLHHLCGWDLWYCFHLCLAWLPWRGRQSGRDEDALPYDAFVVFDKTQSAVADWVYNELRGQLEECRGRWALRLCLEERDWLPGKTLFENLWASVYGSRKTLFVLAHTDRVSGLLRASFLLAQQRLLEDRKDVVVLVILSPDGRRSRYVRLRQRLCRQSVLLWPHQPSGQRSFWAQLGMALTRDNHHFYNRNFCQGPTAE
Method in brief: (§1)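 Read-out is SEAP activity in HEK-Blue detection medium after 22 h at 37 °C, converted to percent inhibition against agonist-plus-DMSO and reference-inhibitor controls. Cells saw compound (0.05 nM–50 μM, 30 min, room temperature) before gardiquimod 7.5 μM, R848 15.9 μM or ODN2006 5 nM for TLR7, TLR8 and TLR9, respectively.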

human TLR8 = biological target: T2, human TLR8 (Homo sapiens, UniProt Q9NR97); assay: TLR8 inhibition reporter assay (HEK-Blue cells, SEAP reporter, R848 stimulation); conditions: HEK-Blue cells overexpressing human TLR8, SEAP reporter, R848 15.9 μM
T2 construct: host or cells: HEK-Blue cells (HEK293-derived reporter line)
T2 sequence (Q9NR97 27-1041): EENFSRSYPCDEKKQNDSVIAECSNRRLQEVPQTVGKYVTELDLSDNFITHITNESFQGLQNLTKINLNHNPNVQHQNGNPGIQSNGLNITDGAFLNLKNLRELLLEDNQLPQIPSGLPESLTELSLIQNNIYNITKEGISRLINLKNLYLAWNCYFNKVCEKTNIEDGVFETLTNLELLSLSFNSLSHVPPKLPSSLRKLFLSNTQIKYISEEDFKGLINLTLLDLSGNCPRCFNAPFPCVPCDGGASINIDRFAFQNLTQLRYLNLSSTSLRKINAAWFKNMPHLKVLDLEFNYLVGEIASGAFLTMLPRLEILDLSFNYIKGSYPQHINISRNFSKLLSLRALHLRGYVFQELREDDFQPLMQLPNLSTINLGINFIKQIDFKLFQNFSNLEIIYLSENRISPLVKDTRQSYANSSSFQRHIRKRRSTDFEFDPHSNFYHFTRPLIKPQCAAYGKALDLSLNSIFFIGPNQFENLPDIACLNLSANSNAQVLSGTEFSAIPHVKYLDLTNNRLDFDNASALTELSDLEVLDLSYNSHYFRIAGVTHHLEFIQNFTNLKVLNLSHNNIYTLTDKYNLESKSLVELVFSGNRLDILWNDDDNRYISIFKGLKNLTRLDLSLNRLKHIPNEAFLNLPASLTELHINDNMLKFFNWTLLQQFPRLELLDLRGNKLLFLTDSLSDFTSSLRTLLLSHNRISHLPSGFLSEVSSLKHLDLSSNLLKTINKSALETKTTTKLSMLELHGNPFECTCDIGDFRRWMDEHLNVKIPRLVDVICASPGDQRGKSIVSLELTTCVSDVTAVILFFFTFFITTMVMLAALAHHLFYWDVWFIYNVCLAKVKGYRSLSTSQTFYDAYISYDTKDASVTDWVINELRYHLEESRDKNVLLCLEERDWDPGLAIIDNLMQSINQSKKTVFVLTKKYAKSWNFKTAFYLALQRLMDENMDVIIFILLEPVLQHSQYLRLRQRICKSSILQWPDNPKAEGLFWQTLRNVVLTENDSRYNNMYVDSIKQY
Method in brief: as §1

human TLR7 = biological target: T3, human TLR7 (Homo sapiens, UniProt Q9NYK1); assay: TLR7 inhibition reporter assay (HEK-Blue cells, SEAP reporter, gardiquimod stimulation); conditions: HEK-Blue cells overexpressing human TLR7, SEAP reporter, gardiquimod 7.5 μM
T3 construct: host or cells: HEK-Blue cells (HEK293-derived reporter line)
T3 sequence (Q9NYK1 27-1049): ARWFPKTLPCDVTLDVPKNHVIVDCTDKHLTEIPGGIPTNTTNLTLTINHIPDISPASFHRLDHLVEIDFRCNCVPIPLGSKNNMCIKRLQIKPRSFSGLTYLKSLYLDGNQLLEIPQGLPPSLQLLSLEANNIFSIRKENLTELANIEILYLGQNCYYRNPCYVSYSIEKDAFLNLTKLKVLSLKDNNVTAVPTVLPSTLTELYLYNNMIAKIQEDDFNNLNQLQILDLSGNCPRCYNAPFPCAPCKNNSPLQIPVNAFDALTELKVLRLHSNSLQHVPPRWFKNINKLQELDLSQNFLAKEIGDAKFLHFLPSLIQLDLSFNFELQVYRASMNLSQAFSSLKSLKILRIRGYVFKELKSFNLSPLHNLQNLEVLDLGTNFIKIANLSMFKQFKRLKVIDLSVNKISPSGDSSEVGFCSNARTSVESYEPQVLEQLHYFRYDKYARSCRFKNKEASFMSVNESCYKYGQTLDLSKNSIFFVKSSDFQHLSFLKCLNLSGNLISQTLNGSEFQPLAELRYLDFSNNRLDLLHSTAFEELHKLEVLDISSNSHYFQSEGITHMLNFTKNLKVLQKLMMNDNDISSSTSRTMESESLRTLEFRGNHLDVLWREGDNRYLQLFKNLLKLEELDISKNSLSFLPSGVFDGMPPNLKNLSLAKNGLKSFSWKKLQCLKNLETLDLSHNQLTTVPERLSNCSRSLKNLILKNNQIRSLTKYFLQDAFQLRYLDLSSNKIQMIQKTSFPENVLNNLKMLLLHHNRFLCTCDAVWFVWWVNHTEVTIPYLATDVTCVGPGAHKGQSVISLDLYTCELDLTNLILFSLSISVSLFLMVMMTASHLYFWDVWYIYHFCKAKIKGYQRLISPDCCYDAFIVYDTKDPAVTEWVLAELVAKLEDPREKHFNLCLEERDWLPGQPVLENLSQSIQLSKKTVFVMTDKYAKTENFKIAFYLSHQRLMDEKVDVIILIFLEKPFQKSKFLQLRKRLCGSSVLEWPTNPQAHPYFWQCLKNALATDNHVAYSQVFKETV
Method in brief: as §1

Row | IC50 (human TLR9) [nM] | IC50 (human TLR8) [nM] | IC50 (human TLR7) [nM] | SMILES
1 | 1000 to 50000 | < 100 | < 100 | CC(C)c1c(-c2ccc3ncnn3n2)[nH]c2ccc(C3CCN(CC(=O)N(C)C)CC3)cc12 [Example 278, 2-(4-(2-([1,2,4]triazolo[1,5-b]pyridazin-6-yl)-3-isopropyl-1H-indol-5-yl)piperidin-1-yl)-N,N-dimethylacetamide]
2 | 100 to 1000 | 100 to 1000 | < 100 | Cc1nc2c(C)cc(-c3[nH]c4ccc(C5CCN(CC(=O)N(C)C)CC5)cc4c3C(C)C)cn2c1C [Example 396, 2-(4-(3-isopropyl-2-(2,3,8-trimethylimidazo[1,2-a]pyridin-6-yl)-1H-indol-5-yl)piperidin-1-yl)-N,N-dimethylacetamide]
3 | 100 to 1000 | < 100 | < 100 | Cc1cc(-c2[nH]c3ccc(C4CCN(C5COC5)CC4)cc3c2C(C)C)cn2ccnc12 [Example 719, 6-(3-isopropyl-5-(1-(oxetan-3-yl)piperidin-4-yl)-1H-indol-2-yl)-8-methylimidazo[1,2-a]pyridine]
4 | 100 to 1000 | 100 to 1000 | < 100 | Cc1cn2c(C)c(-c3[nH]c4ccc(C5CCNCC5)cc4c3C(C)C)ccc2n1 [Example 123, 6-(3-isopropyl-5-(piperidin-4-yl)-1H-indol-2-yl)-2,5-dimethylimidazo[1,2-a]pyridine]
5 | 1000 to 50000 | < 100 | < 100 | COc1cc(-c2[nH]c3ccc(C4CCN(C(=O)CN(C)C)CC4)cc3c2C(C)C)nn2ncnc12 [Example 460, 2-(dimethylamino)-1-(4-(3-isopropyl-2-(8-methoxy-[1,2,4]triazolo[1,5-b]pyridazin-6-yl)-1H-indol-5-yl)piperidin-1-yl)ethan-1-one]
6 | 100 to 1000 | < 100 | < 100 | CC(C)c1c(-c2cc(CO)c3nccn3c2)[nH]c2ccc(C3CCN(C(=O)CN(C)C)CC3)cc12 [Example 492, 2-(dimethylamino)-1-(4-(2-(8-(hydroxymethyl)imidazo[1,2-a]pyridin-6-yl)-3-isopropyl-1H-indol-5-yl)piperidin-1-yl)ethan-1-one]
7 | 1000 to 50000 | > 3130 | 100 to 1000 | Cc1cn2cc(-c3[nH]c4ccc(C5CCN(C(=O)C[C@@H](C)O)CC5)cc4c3CC(F)F)ccc2n1 [Example 609, (R)-1-(4-(3-(2,2-difluoroethyl)-2-(2-methylimidazo[1,2-a]pyridin-6-yl)-1H-indol-5-yl)piperidin-1-yl)-3-hydroxybutan-1-one]
8 | 1000 to 50000 | < 100 | < 100 | COc1cc(-c2[nH]c3ccc(C4CCN(C5COC5)CC4)cc3c2C(C)C)cn2ccnc12 [Example 722, 6-(3-isopropyl-5-(1-(oxetan-3-yl)piperidin-4-yl)-1H-indol-2-yl)-8-methoxyimidazo[1,2-a]pyridine]
9 | 1000 to 50000 | > 50000 | > 50000 | CCc1c(-c2cccc3c2cnn3C)[nH]c2ccc(C3CCN(C(=O)CN[C@H]4CC[C@@H](N)CC4)CC3)cc12 [Example 519, 2-(((1s,4s)-4-aminocyclohexyl)amino)-1-(4-(3-ethyl-2-(1-methyl-1H-indazol-4-yl)-1H-indol-5-yl)piperidin-1-yl)ethan-1-one]
10 | 1000 to 50000 | < 100 | < 100 | Cc1cnc2[nH]ccc2c1-c1[nH]c2ccc(C3CCNCC3)cc2c1C(C)C [Example 247, 4-(3-isopropyl-5-(piperidin-4-yl)-1H-indol-2-yl)-5-methyl-1H-pyrrolo[2,3-b]pyridine]
11 | 1000 to 50000 | < 100 | 1000 to 50000 | CC(C)c1c(-c2nc3cnccn3n2)[nH]c2ccc(C3CCNCC3)cc12 [Example 195, 2-(3-isopropyl-5-(piperidin-4-yl)-1H-indol-2-yl)-[1,2,4]triazolo[1,5-a]pyrazine]
12 | 1000 to 50000 | < 100 | < 100 | Cc1c(-c2ccnc3[nH]ccc23)[nH]c2ccc(C3CCNCC3)cc12 [Example 2, 4-(3-methyl-5-(piperidin-4-yl)-1H-indol-2-yl)-1H-pyrrolo[2,3-b]pyridine]
13 | 1000 to 50000 | < 100 | < 100 | CNC(=O)CN1CCC(c2ccc3[nH]c(-c4cc(C(F)(F)F)c5nccn5c4)c(C(C)C)c3c2)CC1 [Example 373, 2-(4-(3-isopropyl-2-(8-(trifluoromethyl)imidazo[1,2-a]pyridin-6-yl)-1H-indol-5-yl)piperidin-1-yl)-N-methylacetamide]
14 | 1000 to 50000 | < 100 | < 100 | Cc1c(-c2[nH]c3ccc(C4CCNCC4)cc3c2C(C)C)c2cccnc2n1C [Example 37, 3-(3-isopropyl-5-(piperidin-4-yl)-1H-indol-2-yl)-1,2-dimethyl-1H-pyrrolo[2,3-b]pyridine]
